According to US10457710B2, “Antimicrobial peptides, their variants and uses” (priority 2015, dated 2019):
Where a SMILES comes first, the peptide text is derived from it. [ ]: non-standard residue; d: D form.

Tests used:
Type in all cases: cell-based
[1] = test system: C. quillermondiae; test: MIC, clinical yeast strains; set-up: Minimum inhibitory concentration: unit: μg/ml; conditions: C. quillermondiae clinical yeast strain 1
In short: (§1)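 Overnight MH agar colonies were suspended in MH broth to 5.0×10^5 cfu/ml, mixed with serial peptide dilutions (0.125–128 μg/ml) and incubated at 37° C for 20 to 24 hours. Yeast MICs were run the same way in potato dextrose broth, and wells were scored visually.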

[2] = test system: clinical strains of P. aeruginosa; test: MIC, microdilution, clinical strains; conditions: 0.02% BSA, 0.2% acetic acid
In short: (§2)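 MIC = lowest peptide concentration without visual growth after 20–24 h at 37° C. Range 0.125–128 μg/ml, inoculum 5.0×10^5 cfu/ml, microdilution format. Antifungal tests used potato dextrose broth; bacterial tests used MH broth.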

[3] = test system: clinical strains of S. pneumoniae; test: MIC, microdilution, clinical strains; conditions: 0.02% BSA, 0.2% acetic acid
In short: as §2

[4] = test system: clinical strains of E. coli; test: MIC, microdilution, clinical strains; conditions: microdilution, Muller Hinton broth-cation adjusted, 0.02% BSA, 0.2% acetic acid
In short: as §2

[5] = test system: clinical strains of E. cloacae; test: MIC, microdilution, clinical strains; conditions: 0.02% BSA, 0.2% acetic acid
In short: as §2

[6] = test system: clinical strains of S. aureus; test: MIC, microdilution, clinical strains; conditions: 0.02% BSA, 0.2% acetic acid
In short: as §2

[7] = test system: clinical strains of Serratia marcescens; test: MIC, microdilution, clinical strains; conditions: 0.02% BSA, 0.2% acetic acid
In short: as §2

[8] = test system: clinical strains of K. pneumoniae; test: MIC, microdilution, clinical strains; conditions: 0.02% BSA, 0.2% acetic acid
In short: as §2

[9] = test system: clinical strains of Proteus mirabilis; test: MIC, microdilution, clinical strains; conditions: 0.02% BSA, 0.2% acetic acid
In short: as §2

[10] = test system: C. glabrata; test: MIC, clinical yeast strains
In short: as §1

[11] = test system: C. parapsilosis; test: MIC, clinical yeast strains
In short: as §1

[12] = test system: Candida albicans; test: MIC, clinical yeast strains
In short: as §1

CC(C)C[C@@H](NC(=O)[C@@H](CCCCN)NC(=O)[C@@H](CCCCN)NC(=O)[C@@H](Cc1ccccc1)NC(=O)[C@@H](CC(C)C)NC(=O)[C@@H](Cc1c[nH]c2ccccc12)NC(=O)[C@@H](CCCNC(=N)N)NC(=O)[C@@H](Cc1c[nH]c2ccccc12)NC(=O)[C@@H](CCCCN)NC(=O)[C@@H](CCCNC(=N)N)NC(=O)[C@H](N)CCCCN)C(=O)O [Chain310D] (H-[dK][dR][dK][dW][dR][dW][dL][dF][dK][dK][dL]-OH)
Minimum inhibitory concentration [1]: 8 | Minimum inhibitory concentration ([2]; Pseudomonas aeruginosa strain 1, Muller Hinton broth-cation adjusted): 8 | Minimum inhibitory concentration ([2]; Pseudomonas aeruginosa strain 2, Muller Hinton broth-cation adjusted): 16 | Minimum inhibitory concentration ([2]; Pseudomonas aeruginosa strain 3, Muller Hinton broth-cation adjusted): 16 | Minimum inhibitory concentration ([2]; Pseudomonas aeruginosa strain 4, Muller Hinton broth-cation adjusted): 8 | Minimum inhibitory concentration ([2]; Pseudomonas aeruginosa strain 5, Muller Hinton broth-cation adjusted): 4 | Minimum inhibitory concentration ([3]; Streptococcus pneumoniae strain 1, Muller Hinton broth-cation adjusted): 128 | Minimum inhibitory concentration ([3]; Streptococcus pneumoniae strain 2, Muller Hinton broth-cation adjusted): 128 | Minimum inhibitory concentration ([3]; Streptococcus pneumoniae strain 3, Muller Hinton broth-cation adjusted): 128 | Minimum inhibitory concentration ([3]; Streptococcus pneumoniae strain 4, Muller Hinton broth-cation adjusted): 128 | Minimum inhibitory concentration ([3]; Streptococcus pneumoniae strain 5, Muller Hinton broth-cation adjusted): 64 | Minimum inhibitory concentration ([4]; Escherichia coli strain 1): 4 | Minimum inhibitory concentration ([4]; Escherichia coli strain 2): 32 | Minimum inhibitory concentration ([4]; Escherichia coli strain 3): 16 | Minimum inhibitory concentration ([4]; Escherichia coli strain 4): 16 | Minimum inhibitory concentration ([4]; Escherichia coli strain 5): 16 | Minimum inhibitory concentration ([5]; Enterobacter cloacae strain 1, Muller Hinton broth-cation adjusted): 128 | Minimum inhibitory concentration ([5]; Enterobacter cloacae strain 2, Muller Hinton broth-cation adjusted): 64 | Minimum inhibitory concentration ([5]; Enterobacter cloacae strain 3, Muller Hinton broth-cation adjusted): 16 | Minimum inhibitory concentration ([5]; Enterobacter cloacae strain 4, Muller Hinton broth-cation adjusted): 8 | Minimum inhibitory concentration ([5]; Enterobacter cloacae strain 5, Muller Hinton broth-cation adjusted): 16 | Minimum inhibitory concentration ([6]; Staphylococcus aureus strain 1, Muller Hinton broth-cation adjusted): 8 | Minimum inhibitory concentration ([6]; Staphylococcus aureus strain 2, Muller Hinton broth-cation adjusted): 16 | Minimum inhibitory concentration ([6]; Staphylococcus aureus strain 3, Muller Hinton broth-cation adjusted): 8 | Minimum inhibitory concentration ([6]; Staphylococcus aureus strain 4, Muller Hinton broth-cation adjusted): 8 | Minimum inhibitory concentration ([6]; Staphylococcus aureus strain 5, Muller Hinton broth-cation adjusted): 4 | Minimum inhibitory concentration ([7]; Serratia marcescens strain 1, Muller Hinton broth-cation adjusted): >128 | Minimum inhibitory concentration ([7]; Serratia marcescens strain 2, Muller Hinton broth-cation adjusted): >128 | Minimum inhibitory concentration ([7]; Serratia marcescens strain 3, Muller Hinton broth-cation adjusted): >128 | Minimum inhibitory concentration ([7]; Serratia marcescens strain 4, Muller Hinton broth-cation adjusted): >128 | Minimum inhibitory concentration ([7]; Serratia marcescens strain 5, Muller Hinton broth-cation adjusted): >128 | Minimum inhibitory concentration ([8]; Klebsiella pneumoniae strain 1, Muller Hinton broth-cation adjusted): 64 | Minimum inhibitory concentration ([8]; Klebsiella pneumoniae strain 2, Muller Hinton broth-cation adjusted): 64 | Minimum inhibitory concentration ([8]; Klebsiella pneumoniae strain 3, Muller Hinton broth-cation adjusted): 128 | Minimum inhibitory concentration ([8]; Klebsiella pneumoniae strain 4, Muller Hinton broth-cation adjusted): 64 | Minimum inhibitory concentration ([8]; Klebsiella pneumoniae strain 5, Muller Hinton broth-cation adjusted): 32 | Minimum inhibitory concentration ([9]; Proteus mirabilis strain 1, Muller Hinton broth-cation adjusted): >128 | Minimum inhibitory concentration ([9]; Proteus mirabilis strain 2, Muller Hinton broth-cation adjusted): >128 | Minimum inhibitory concentration ([9]; Proteus mirabilis strain 3, Muller Hinton broth-cation adjusted): >128 | Minimum inhibitory concentration ([9]; Proteus mirabilis strain 4, Muller Hinton broth-cation adjusted): >128 | Minimum inhibitory concentration ([9]; Proteus mirabilis strain 5, Muller Hinton broth-cation adjusted): >128 | Minimum inhibitory concentration ([10]; C. glabrata clinical yeast strain 1): 16 | Minimum inhibitory concentration ([10]; C. glabrata clinical yeast strain 2): 16 | Minimum inhibitory concentration ([10]; C. glabrata clinical yeast strain 3): 128 | Minimum inhibitory concentration ([10]; C. glabrata clinical yeast strain 4): 128 | Minimum inhibitory concentration ([11]; C. parapsilosis clinical yeast strain 1): 64 | Minimum inhibitory concentration ([11]; C. parapsilosis clinical yeast strain 2): 64 | Minimum inhibitory concentration ([11]; C. parapsilosis clinical yeast strain 3): 64 | Minimum inhibitory concentration ([11]; C. parapsilosis clinical yeast strain 4): 16 | Minimum inhibitory concentration ([12]; Candida albicans clinical yeast strain 1): 16 | Minimum inhibitory concentration ([12]; Candida albicans clinical yeast strain 2): 16 | Minimum inhibitory concentration ([12]; Candida albicans clinical yeast strain 3): 16 | Minimum inhibitory concentration ([12]; Candida albicans clinical yeast strain 4): 16 | Minimum inhibitory concentration ([12]; Candida albicans clinical yeast strain 5): 16
